Activity calls are given as the source filed them. The calls are words filed in the database; no cut-off is given here.
Assays:
HL-60 = test: Induction of apoptosis in human HL-60 cells assessed as caspase 3/7 activation at IC75 concentration incubated at 48 hrs; type: functional
CAL-27 [1] = test: Induction of apoptosis in human CAL-27 cells assessed as caspase 3 activation at 2 uM in presence of pretreated for 24 hrs followed by cisplatin treatment and further incubated for 18 hrs by Caspase3/7 detection reagent based assay; type: functional, cell-based; settings: time 42.0 hrs
[2] = biological target: T1, Histone deacetylase (Homo sapiens) (UniProt Q13547+O15379+Q9UBN7+Q92769+Q9UQL6+Q8WUI4+Q9BY41+Q96DB2+P56524+Q9UKV0+Q969S8); test: Inhibition of HDAC in human CAL-27 cells assessed as combination index at 1.5 uM measured in presence of 10 uM cDDP by MTT-based Chou-Talalay method; type: cell-based
[3] = biological target: T1, Histone deacetylase (Homo sapiens); test: Inhibition of HDAC in human Cal27CisR cells assessed as combination index at 0.75 uM measured in presence of 50 uM cDDP by MTT-based Chou-Talalay method; type: cell-based
[4] = biological target: T1, Histone deacetylase (Homo sapiens); test: Inhibition of HDAC in human CAL-27 cells assessed as combination index at 0.75 uM measured in presence of 10 uM cDDP by MTT-based Chou-Talalay method; type: cell-based
[5] = biological target: T1, Histone deacetylase (Homo sapiens); test: Inhibition of HDAC in human Cal27CisR cells assessed as combination index at 1.5 uM measured in presence of 20 uM cDDP by MTT-based Chou-Talalay method; type: cell-based
[6] = biological target: T1, Histone deacetylase (Homo sapiens); test: Inhibition of HDAC in human Cal27CisR cells assessed as combination index at 2 uM measured in presence of 50 uM cDDP by MTT-based Chou-Talalay method; type: cell-based
[7] = biological target: T1, Histone deacetylase (Homo sapiens); test: Inhibition of HDAC in human CAL-27 cells assessed as combination index at 2 uM measured in presence of 10 uM cDDP by MTT-based Chou-Talalay method; type: cell-based
Histone deacetylase = test: Inhibition of HDAC in human CAL-27 cells assessed as potentiation of cisplatin-induced cytotoxicity by measuring cisplatin IC50 at 2 to 3 uM pretreated for 48 hrs followed by cisplatin addition and measured after 72 hrs by MTT assay (reference value: 3.57 uM); type: cell-based
[8] = biological target: T1, Histone deacetylase (Homo sapiens); test: Inhibition of HDAC in human Cal27CisR cells assessed as combination index at 3 uM measured in presence of 50 uM cDDP by MTT-based Chou-Talalay method; type: cell-based
CAL-27 [9] = test: Induction of apoptosis in human CAL-27 cells assessed as caspase 7 activation at 2 uM in presence of pretreated for 24 hrs followed by cisplatin treatment and further incubated for 18 hrs by Caspase3/7 detection reagent based assay; type: functional, cell-based; settings: time 42.0 hrs
[10] = biological target: T1, Histone deacetylase (Homo sapiens); test: Inhibition of HDAC in human Cal27CisR cells assessed as combination index at 3 uM measured in presence of 20 uM cDDP by MTT-based Chou-Talalay method; type: cell-based

Compound | IC75 (HL-60) | Activity (CAL-27 [1]) | CI [2] | CI [3] | CI [4] | CI [5] | CI [6] | CI [7] | IC50 (Histone deacetylase) | CI [8] | Activity (CAL-27 [9]) | CI [10]
O=C(CCCCCONC(=O)c1ccc2ccccc2n1)NO | 320 nM |  |  |  |  |  |  |  |  |  |  | 
O=C(CCCCCONC(=O)c1nccc2ccccc12)NO |  | Active | 0.21 | 0.56 | 0.51 | 0.55 | 0.42 | 0.14 | 1100 nM | 0.39 | Active | 0.21

Reference: ChEMBL document CHEMBL4823243, “Synergistic induction of apoptosis in resistant head and neck carcinoma and leukemia by alkoxyamide-based histone deacetylase inhibitors” (Eur J Med Chem, 2021)
